The source of these data is ChEMBL document CHEMBL3217595, “RCAI-133, an N-methylated analogue of KRN7000, activates mouse natural killer T cells to produce Th2-biased cytokines” (2013).

Active and inactive are the calls of the source. No cut-off for these calls is given here.

Test [1] relates to Mus musculus. In words: Immunostimulatory activity in C57BL/6 mouse assessed as induction of IL-4/IFN-gamma ratio in serum at 2 ug, iv administered through PBS solution. The test is classed as functional.
Test [2] deals with Mus musculus. In words: Immunostimulatory activity in C57BL/6 mouse assessed as induction of IL-4 production in serum at 2 ug, iv administered through PBS solution. The test is classed as functional, organism-based.
Test [3] relates to Mus musculus. Description: Immunostimulatory activity in C57BL/6 mouse assessed as induction of IFN-gamma production in serum at 2 ug, iv administered through PBS solution by ELISA. The test is classed as functional, organism-based.

As to `CCCCCCCCCCCCCCCCCCCCCCCCCC(=O)N[C@@H](CO[C@H]1O[C@H](CO)[C@H](O)[C@H](O)[C@H]1O)[C@H](O)[C@H](O)CCCCCCCCCCCCCC` [RGI-7000], in the test on Mus musculus [1], the Ratio is listed as 0.0043. Consider `CCCCCCCCCCCCCCCC[C@@H](C)C(=O)N[C@@H](CO[C@H]1O[C@H](CO)[C@H](O)[C@H](O)[C@H]1O)[C@H](O)[C@H](O)CCCCCCCCCCCCCC`, for which the result with Mus musculus [2] and in the test with Mus musculus [3] was Active. `CCCCCCCCCCCCCCCCC(C)(C)C(=O)N(C)[C@@H](CO[C@H]1O[C@H](CO)[C@H](O)[C@H](O)[C@H]1O)[C@H](O)[C@H](O)CCCCCCCCCCCCCC`: the result with Mus musculus [2] and in the test with Mus musculus [3] was inactive. For the molecule `CCCCCCCCCCCCCCCCCC(=O)N[C@@H](CO[C@H]1O[C@H](CO)[C@H](O)[C@H](O)[C@H]1O)[C@H](O)[C@H](O)CCCCCCCCCCCCCC`, the outcome with Mus musculus [2] and in the test on Mus musculus [3] was Active. Take `CCCCCCCCCCCCCCCCCC(=O)N(C)[C@@H](CO[C@H]1O[C@H](CO)[C@H](O)[C@H](O)[C@H]1O)[C@H](O)[C@H](O)CCCCCCCCCCCCCC`: in the test on Mus musculus [1], the Ratio came out at 0.0095. Besides, the result in the test on Mus musculus [2] and with Mus musculus [3] was inactive.

Consider `CCCCCCCCCCCCCCCC[C@@H](C)C(=O)N(C)[C@@H](CO[C@H]1O[C@H](CO)[C@H](O)[C@H](O)[C@H]1O)[C@H](O)[C@H](O)CCCCCCCCCCCCCC`, for which the outcome in the test on Mus musculus [2] and in the test on Mus musculus [3] was inactive. `CCCCCCCCCCCCCCCC[C@@H](O)C(=O)N(C)[C@@H](CO[C@H]1O[C@H](CO)[C@H](O)[C@H](O)[C@H]1O)[C@H](O)[C@H](O)CCCCCCCCCCCCCC`: the result with Mus musculus [2] and in the test with Mus musculus [3] was inactive. Take `CCCCCCCCCCCCCCCCCCCCCCCCCC(=O)N(C)[C@@H](CO[C@H]1O[C@H](CO)[C@H](O)[C@H](O)[C@H]1O)[C@H](O)[C@H](O)CCCCCCCCCCCCCC`: in the test on Mus musculus [1], the Ratio is 0.017.

In the case of `CCCCCCCCCCCCCCCCC(C)(C)C(=O)N[C@@H](CO[C@H]1O[C@H](CO)[C@H](O)[C@H](O)[C@H]1O)[C@H](O)[C@H](O)CCCCCCCCCCCCCC`, the result with Mus musculus [2] and with Mus musculus [3] was Active. Take `CCCCCCCCCCCCCCCC[C@@H](O)C(=O)N[C@@H](CO[C@H]1O[C@H](CO)[C@H](O)[C@H](O)[C@H]1O)[C@H](O)[C@H](O)CCCCCCCCCCCCCC`: the result in the test on Mus musculus [2] and with Mus musculus [3] was Active.
